{"source": "patent EP1369114A1", "about": "“Use of tryptophan metabolites as pharmaceutical agents” (Terness, Peter, Priv. Doz. Dr., priority 2002, dated 2003)", "assay_type_in_all_cases": "cell-based, human", "key": {"CD3-stimulated T cells": {"test_system": "CD3-stimulated T cells", "experiment": "CD3 stimulation of T cells: metabolite titration curves, 3[H]-thymidin incorporation", "conditions": "anti-CD3 antibody, 3 days; for IC50: Homo sapiens, T-cell, 72 h, single substance, read-out: I50 of proliferation of CD3-stimulated T cells", "excerpt": "• (a) Allogeneic T-cell response. DCs were infected with recombinant IDO-adeno-GFP (DC-IDO-GFP), IDO-adeno (DC-IDO) or with control adenoviruses (DC-adeno) at a MOI (multiplicity of infection) up to 500 for 2 days. Lymphocytes (PBMCs) were separated from peripheral blood of healthy donors by density gradient centrifugation and typed for HLA antigens. Only HLA-DR-different responder lymphocytes were used for DC-induced stimulation. Native DCs only, lymphocytes only, native DCs + allogeneic lymphocytes, DC-IDO-GFP + allogeneic lymphoytes, DC-IDO + allogeneic lymphoytes, DC-adeno + allogeneic lymphocytes (each time 10^5 DC + 10^5 lymphocytes in 0.2ml medium) were cultured in RPMI 1640 medium (Gibco BRL Life Technologies GmbH, Eggenstein, Germany) with 10% fetal calf serum (FCS) (final tryptophan concentration 5.25 mg/l = 25.69 uM) and Penicillin G/Streptomycin. […] In order to verify whether IDO expression or adenovirus infection harm the DCs, 10^5 cells were infected with IDO-adeno-GFP, IDO-adenovirus, or adenovirus only at a stepwise decreasing MOI (500, 250, 125, ........ 3.9) and cell viability was measured in FACS following double staining with 7-AAD and anti-CD83 antibody-PE. The percentage of dead cells never exceeded 30% for any MOI following IDO-adeno-GFP- or IDO-adeno-infection and 40% following adenovirus(control)-infection. Moreover, these values were not higher than those of native DCs cultured for the same period of time. The experiment was repeated using ethidium bromide or trypan blue staining with virtually the same result. […] Peripheral blood lymphocytes were cultured (10^5 cells/well) in RPMI 1640 (10% FCS) with anti CD3 monoclonal antibody (Ortho Diagnostic Systems Inc., Raritan, NJ) (final dilution 1:200). […] Kynurenine, 3-hydroxykynurenine, anthranilic acid, 3-hydroxyanthranilic acid, and quinolinic acid (Sigma-Aldrich Chemie GmbH, Taufkirchen, Germany)(for all substances purity>98%) were dissolved in RPMI 1640 and added to cell cultures at various concentrations. In an other experiment, to determine whether the metabolites have an additive effect, equal concentrations of the compounds were mixed and added to the cultures. […] Positive controls consisted of CD3-stimulated cells without metabolites and negative controls of unstimulated cells. • (d) Restimulation of suppressed T cells. Lymphocytes (10^5 cells/well) were cultured in RPMI 1640 (10% FCS) with anti-CD3 monoclonal antibody (final dilution 1:200) and kynurenine (dilution series). […] Controls consisted of cells prestimulated with anti-CD3 but not pretreated with kynurenine. In an other restimulation experiment lymphocytes were stimulated with allogeneic DCs as described, in the presence (47-1500µM) or absence of kynurenine. Control cultures contained DCs or lymphocytes only. After 5 days the cells were extensively washed, and restimulated with an identical number of DCs derived from the same donor or from third party donors. […] In order to define the concentration of tryptophan which reduces T- lymphocyte proliferation in our test system, 10^5 lymphocytes were incubated in tryptophan-free RPMI 1640 medium (Gibco BRL Life Technologies) with or without 10% FCS, stimulated with anti-CD3 monoclonal antibody, and various amounts (0-38µM) of tryptophan were added. Unimpaired proliferation was observed down to 0.30µM (medium with FCS) and 1 .20µM (without FCS). Complete inhibition was not obtained at any concentration (positive control 100% proliferation; maximal suppression in medium with FCS: approx. 66% and without FCS: approx. 33%). All cell cultures were done in triplicate.\nAll tests were carried out in triplicate and results are given as mean +standard deviation. […] Thereafter, the concentration of substance giving 50% proliferation was calculated by regression."}, "T cells": {"test_system": "T cells", "experiment": "Detection of cell death: 7-AAD staining of anti-CD3 stimulated lymphocytes, FACScan", "conditions": "anti-CD3, 3 days; 1501 µM kynurenine, 349µM 3-hydroxykynurenine, 510µM 3-hydroxyanthranilic acid, mixture 64 µM of each compound", "description": "Lymphocytes were stimulated in culture with anti-CD3 monoclonal antibody (s. above) in the presence or absence (control) of kynurenine (1501µM), 3-hydroxyanthranilic acid (510µM), 3-hydroxykynurenine (348µM), or metabolite mixture (64µM kynurenine + 64µM 3-hydroxykynurenine + 64µM anthranilic acid + 64µM 3-hydroxyanthranilic acid + […] quinolinic acid). After 3 days the cells were washed and resuspended in PBS (10^6/ml). Thereafter, the cells (100µ1 suspension) were labeled with anti-CD3-FITC antibody (3 µl), stained with 7-AAD (5µl) for 15 min, and the percentage of 7-AAD-positive (dead) T cells was determined in a FACScan. In an other experiment T cells, B cells, NK-cells, or DCs were separated from PBMCs by magnetic beads or generated as described, and cultured (5x10^5 cells/ml) with a mixture of kynurenine metabolites (kynurenine + 3-hydroxykynurenine + anthranilic acid + 3-hydroxyanthranilic acid + quinolinic acid)(8, 16, or 32µM respectively for each compound). In one setting T cells were activated with anti-CD3 antibody. Cell death was measured daily for 5 days by 7-AAD staining and expressed in percentage of dead cells."}, "[1]": {"test_system": "T cells stimulated by allogeneic DCs", "experiment": "Allogeneic T-cell response: lymphocyte proliferation induced by allogeneic dendritic cells, 3[H]-thymidin incorporation", "conditions": "6 days", "excerpt": "DCs were generated from CD14-positive blood monocytes as previously described (\"Schuler G. and N. Romani\", 1997, Adv. Exp. Med. Biol. 417:7-13). Briefly, peripheral blood mononuclear cells of an HLA-typed healthy donor were separated by density gradient centrifugation and CD14-positive monocytes were isolated by adherence to culture dishes. Non-adherent cells were discarded. After culture of monocytes in the presence of human rGM-CSF (666 Units/ml) and rIL-4 (1000 Units/ml) for 7 days, rTNF-α (10 ng/ml) was added for an additional 2 days to induce maturation of DC. Characterization of DC phenotype was performed by flow cytometry using the following mouse monoclonal antibodies: anti-CD 14-FITC, anti-HLA-DR-FITC, anti-CD 1a-PE, anti-CD86-PE, and anti-CD83-PE (BD Biosciences Heidelberg, Germany). DCs were kept in liquid nitrogen until use.\n• (a) Allogeneic T-cell response. DCs were infected with recombinant IDO-adeno-GFP (DC-IDO-GFP), IDO-adeno (DC-IDO) or with control adenoviruses (DC-adeno) at a MOI (multiplicity of infection) up to 500 for 2 days. […] After 5 days, ^3[H]-thymidin was added for 12hrs and the number of counts (counts per minute = cpm) determined in a (3-counter (Inotech Biosystems, Lansing, MI). In order to verify whether IDO expression or adenovirus infection harm the DCs, 10^5 cells were infected with IDO-adeno-GFP, IDO-adenovirus, or adenovirus only at a stepwise decreasing MOI (500, 250, 125, ........ 3.9) and cell viability was measured in FACS following double staining with 7-AAD and anti-CD83 antibody-PE. The percentage of dead cells never exceeded 30% for any MOI following IDO-adeno-GFP- or IDO-adeno-infection and 40% following adenovirus(control)-infection. […] After 2 days, cell proliferation was assessed by measuring ^3[H]-thymidin incorporation (cpm) as described. • (c) Tryptophan metabolite titration curves. […] After 2 days, ^3[H] thymidin was added and the number of counts recorded. […] After another 2 days, ^3[H] thymidin was added and cpm determined. […]"}, "[2]": {"test_system": "T- lymphocyte proliferation", "experiment": "Tryptophan titration curve: proliferation of anti-CD3 stimulated lymphocytes in tryptophan-free medium", "conditions": "for maximal suppression: positive control 100% proliferation", "excerpt": "• (a) Allogeneic T-cell response. DCs were infected with recombinant IDO-adeno-GFP (DC-IDO-GFP), IDO-adeno (DC-IDO) or with control adenoviruses (DC-adeno) at a MOI (multiplicity of infection) up to 500 for 2 days. Lymphocytes (PBMCs) were separated from peripheral blood of healthy donors by density gradient centrifugation and typed for HLA antigens. Only HLA-DR-different responder lymphocytes were used for DC-induced stimulation. Native DCs only, lymphocytes only, native DCs + allogeneic lymphocytes, DC-IDO-GFP + allogeneic lymphoytes, DC-IDO + allogeneic lymphoytes, DC-adeno + allogeneic lymphocytes (each time 10^5 DC + 10^5 lymphocytes in 0.2ml medium) were cultured in RPMI 1640 medium (Gibco BRL Life Technologies GmbH, Eggenstein, Germany) with 10% fetal calf serum (FCS) (final tryptophan concentration 5.25 mg/l = 25.69 uM) and Penicillin G/Streptomycin. After 5 days, ^3[H]-thymidin was added for 12hrs and the number of counts (counts per minute = cpm) determined in a (3-counter (Inotech Biosystems, Lansing, MI). In order to verify whether IDO expression or adenovirus infection harm the DCs, 10^5 cells were infected with IDO-adeno-GFP, IDO-adenovirus, or adenovirus only at a stepwise decreasing MOI (500, 250, 125, ........ 3.9) and cell viability was measured in FACS following double staining with 7-AAD and anti-CD83 antibody-PE. The percentage of dead cells never exceeded 30% for any MOI following IDO-adeno-GFP- or IDO-adeno-infection and 40% following adenovirus(control)-infection. Moreover, these values were not higher than those of native DCs cultured for the same period of time. […] After 2 days, cell proliferation was assessed by measuring ^3[H]-thymidin incorporation (cpm) as described. • (c) Tryptophan metabolite titration curves. […] After 2 days, ^3[H] thymidin was added and the number of counts recorded. […] After another 2 days, ^3[H] thymidin was added and cpm determined. […] 3[H] thymidin was added to all cultures and the number of counts (cpm) determined. • (e) Tryptophan titration curve. […]"}}, "data": [{"molecule": "Nc1c(O)cccc1C(=O)O", "note": "[3-hydroxyanthranilic acid]", "values": [{"measurement": "IC50", "setting": "CD3-stimulated T cells", "value": 96, "unit": "µM"}, {"measurement": "suppression of T cell response (in words)", "setting": "CD3-stimulated T cells", "value": "strongly suppress T cells"}, {"measurement": "dead (7-AAD-positive) T cells (in words)", "setting": "T cells", "value": "virtually all cells died"}]}, {"molecule": "Nc1c(O)cccc1C(=O)CC(N)C(=O)O", "note": "(centres unmarked) [3-hydroxykynurenine]", "values": [{"measurement": "IC50", "setting": "CD3-stimulated T cells", "value": 187, "unit": "µM"}, {"measurement": "suppression of T cell response (in words)", "setting": "CD3-stimulated T cells", "value": "strongly suppress T cells"}, {"measurement": "dead (7-AAD-positive) T cells (in words)", "setting": "T cells", "value": "virtually all cells died"}]}, {"molecule": "Nc1ccccc1C(=O)C[C@@H](N)C(=O)O", "note": "[D-kynurenine]", "values": [{"measurement": "suppression of T cell response (in words)", "setting": "CD3-stimulated T cells", "value": "The same effect was noted"}, {"measurement": "inhibition of proliferation of T cells stimulated by allogeneic DCs (in words)", "setting": "[1]", "value": "The same effect was noted"}]}, {"molecule": "NC(CC(=O)c1ccccc1NC=O)C(=O)O", "note": "(centres unmarked) [N-formylkynurenine]", "values": [{"measurement": "suppression of T cell response (in words)", "setting": "CD3-stimulated T cells", "value": "Suppression of T-cell response can also be achieved"}]}, {"molecule": "Nc1ccccc1C(=O)O", "note": "[anthranilic acid]", "values": [{"measurement": "suppression of T cell response (in words)", "setting": "CD3-stimulated T cells", "value": "suppressive but at higher concentrations"}]}, {"molecule": "O=C(O)c1cccnc1C(=O)O", "note": "[quinolinic acid]", "values": [{"measurement": "suppression of T cell response (in words)", "setting": "CD3-stimulated T cells", "value": "suppressive but at higher concentrations"}]}, {"molecule": "N[C@@H](Cc1c[nH]c2ccccc12)C(=O)O", "note": "[tryptophan]", "values": [{"measurement": "lowest tryptophan concentration with unimpaired proliferation", "setting": "[2]; medium with FCS", "value": 0.30, "unit": "µM"}, {"measurement": "maximal suppression", "setting": "[2]; medium with FCS", "value": "approx. 66%"}, {"measurement": "maximal suppression", "setting": "[2]; medium without FCS", "value": "approx. 33%"}]}]}
